Tested on: C57Bl/6J mice
Experiment: Tail suspension test
Format: in vivo, mouse
Conditions: 10 mg/kg i.p., 30 min prior to testing, 6 min trial; saline 143.7 ± 3.3 s

Compound | immobility in TST
CN(C)CCCC1(c2ccc(F)cc2)OCc2cc(C#N)ccc21 (centres unmarked) [citalopram] | 29.7 ± 14.5 s
COCCCC/C(=N\OCCN)c1ccc(C(F)(F)F)cc1 [fluvoxamine] | 59.0 ± 12.5 s

Source: paper PMC4176318 (ACS Chemical Neuroscience, 2014)
